The values below come from PMC7300657 (EMBO Molecular Medicine, 2020).

Like-named read-outs stand apart in the source and are kept apart here.

For one series, the target named is BIKE (Homo sapiens, UniProt Q9NSY1). Nature of the series: biochemical. It is filed as binding.
The target in the next series is T1, GAK (Homo sapiens, UniProt O14976).
T1 sequence (O14976 1-1311): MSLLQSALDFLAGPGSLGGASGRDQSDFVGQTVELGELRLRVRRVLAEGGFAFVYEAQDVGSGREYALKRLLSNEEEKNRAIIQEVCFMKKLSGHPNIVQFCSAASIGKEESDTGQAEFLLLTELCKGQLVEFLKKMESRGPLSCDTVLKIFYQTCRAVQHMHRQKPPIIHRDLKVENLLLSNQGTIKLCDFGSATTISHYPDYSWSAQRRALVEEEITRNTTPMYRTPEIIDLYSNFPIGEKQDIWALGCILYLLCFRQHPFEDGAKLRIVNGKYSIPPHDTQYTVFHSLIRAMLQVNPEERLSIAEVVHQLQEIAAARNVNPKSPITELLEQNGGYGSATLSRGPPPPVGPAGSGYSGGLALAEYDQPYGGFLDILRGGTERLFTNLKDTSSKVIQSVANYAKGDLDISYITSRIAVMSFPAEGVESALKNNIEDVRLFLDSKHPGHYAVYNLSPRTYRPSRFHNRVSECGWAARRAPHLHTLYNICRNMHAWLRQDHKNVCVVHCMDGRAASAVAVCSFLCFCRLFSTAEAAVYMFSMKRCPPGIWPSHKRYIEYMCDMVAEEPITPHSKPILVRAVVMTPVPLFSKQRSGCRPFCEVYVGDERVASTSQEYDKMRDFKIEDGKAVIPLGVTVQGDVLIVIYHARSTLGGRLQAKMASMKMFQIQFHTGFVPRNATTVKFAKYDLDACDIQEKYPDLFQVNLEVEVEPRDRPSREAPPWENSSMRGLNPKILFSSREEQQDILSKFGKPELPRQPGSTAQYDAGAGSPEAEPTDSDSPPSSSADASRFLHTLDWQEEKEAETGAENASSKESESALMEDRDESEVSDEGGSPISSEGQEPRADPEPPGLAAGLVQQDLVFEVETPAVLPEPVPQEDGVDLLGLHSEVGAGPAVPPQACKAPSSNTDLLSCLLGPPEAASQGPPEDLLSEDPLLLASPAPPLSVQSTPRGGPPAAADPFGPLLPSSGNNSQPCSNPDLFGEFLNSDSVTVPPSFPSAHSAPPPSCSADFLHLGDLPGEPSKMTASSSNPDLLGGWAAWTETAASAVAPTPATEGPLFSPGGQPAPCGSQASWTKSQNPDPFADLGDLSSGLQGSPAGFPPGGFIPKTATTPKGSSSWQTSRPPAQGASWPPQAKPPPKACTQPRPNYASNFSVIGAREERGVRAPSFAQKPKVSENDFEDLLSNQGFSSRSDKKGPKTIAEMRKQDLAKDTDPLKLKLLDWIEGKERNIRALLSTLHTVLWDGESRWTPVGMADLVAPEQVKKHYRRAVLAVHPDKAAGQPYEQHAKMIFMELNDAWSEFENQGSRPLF
Nature of the series: biochemical. Format: binding.

The target of the next series is STK16 (Homo sapiens, UniProt O75716). Nature of the series: biochemical. Format: binding.
For another series, the target named is AAK1 (Homo sapiens, UniProt Q2M2I8). Nature of the series: biochemical.
Series [1] deals with cytokine‐induced JAK/STAT signaling. Nature of the series: Cytokine-stimulated pSTAT inhibition in human leukocyte subpopulations (flow cytometry). Particulars: human CD4+ T cells, CD8+ T cells, NK cells, monocytes; 1 h preincubation, 15 min cytokine stimulation. Format: cell-based. Here is the method:
Leukocyte preparation and experimental design were largely performed as previously described (McInnes et al, 2019). Whole blood samples from healthy donors (N = 6) were apheresed, and leukocyte‐enriched fractions were transferred to the company Primity Bio (Fremont, CA, USA). […] Cytokines were used at the following concentrations: IL‐2 (4 ng/ml), IL‐3 (12 ng/ml), IL‐4 (350 pg/ml), IL‐6 (1.5 ng/ml), IL‐10 (12 ng/ml), IL‐15 (850 pg/ml), IL‐21 (200 pg/ml), IFN‐γ (100 pg/ml), G‐CSF (5 ng/ml), and GM‐CSF (5 pg/ml). The choice of cytokine concentrations and incubation conditions was optimized in order to ensure consistent signaling in alternate cell types and pSTAT readouts. After stimulation, cells were fixed, permeabilized, and fluorescence‐barcoded, and multicolor flow cytometry was performed as previously described to quantify STAT phosphorylation in gated leukocyte subpopulations (McInnes et al, 2019). For a given case (stimulation, cell type, and pSTAT combination), the IC50 was determined if there was a consistent response to the stimulus as described in the statistical analysis section. The primary pSTAT observed for each stimulus is reported. […]
IC50 values were determined by analyzing the mean fluorescence intensity (MFI) of cytokine‐stimulated samples in the presence of the designated concentration of compound. […]
(In general: In flow cytometry, cells or beads pass a laser one at a time.)

The subject of series [2] is SARS‐CoV‐2. Format: cell-based. Particulars: pretreatment 24 h with 400 and 800 nM, MOI 0.1, 48 h after infection, P < 0.05.
Series [3] has as its system primary human liver spheroids. Nature of the series: Viability of primary human liver spheroids (intracellular ATP). Format: cell-based. Particulars: up to concentrations approximately eightfold higher than clinical AUC at 4 mg ([…]), n = 10.
The test system of a further series is IL‐6. Particulars: patients with active RA, inadequate response to methotrexate, P < 0.05.
Series [4] concerns SARS‐CoV‐2.
For series [5] the following is noted: cited from earlier work.
Details of series [6]: method as in Genovese et al, 2019. Particulars: RA patients, 10,127 patients-year of exposure, up to 6.9 years; ref Genovese et al, 2019; cited from earlier work.
In a further series the test system is JAK2. Particulars: ref Fridman et al, 2010; cited from earlier work.

Chain of BIKE (Q9NSY1 whole entry): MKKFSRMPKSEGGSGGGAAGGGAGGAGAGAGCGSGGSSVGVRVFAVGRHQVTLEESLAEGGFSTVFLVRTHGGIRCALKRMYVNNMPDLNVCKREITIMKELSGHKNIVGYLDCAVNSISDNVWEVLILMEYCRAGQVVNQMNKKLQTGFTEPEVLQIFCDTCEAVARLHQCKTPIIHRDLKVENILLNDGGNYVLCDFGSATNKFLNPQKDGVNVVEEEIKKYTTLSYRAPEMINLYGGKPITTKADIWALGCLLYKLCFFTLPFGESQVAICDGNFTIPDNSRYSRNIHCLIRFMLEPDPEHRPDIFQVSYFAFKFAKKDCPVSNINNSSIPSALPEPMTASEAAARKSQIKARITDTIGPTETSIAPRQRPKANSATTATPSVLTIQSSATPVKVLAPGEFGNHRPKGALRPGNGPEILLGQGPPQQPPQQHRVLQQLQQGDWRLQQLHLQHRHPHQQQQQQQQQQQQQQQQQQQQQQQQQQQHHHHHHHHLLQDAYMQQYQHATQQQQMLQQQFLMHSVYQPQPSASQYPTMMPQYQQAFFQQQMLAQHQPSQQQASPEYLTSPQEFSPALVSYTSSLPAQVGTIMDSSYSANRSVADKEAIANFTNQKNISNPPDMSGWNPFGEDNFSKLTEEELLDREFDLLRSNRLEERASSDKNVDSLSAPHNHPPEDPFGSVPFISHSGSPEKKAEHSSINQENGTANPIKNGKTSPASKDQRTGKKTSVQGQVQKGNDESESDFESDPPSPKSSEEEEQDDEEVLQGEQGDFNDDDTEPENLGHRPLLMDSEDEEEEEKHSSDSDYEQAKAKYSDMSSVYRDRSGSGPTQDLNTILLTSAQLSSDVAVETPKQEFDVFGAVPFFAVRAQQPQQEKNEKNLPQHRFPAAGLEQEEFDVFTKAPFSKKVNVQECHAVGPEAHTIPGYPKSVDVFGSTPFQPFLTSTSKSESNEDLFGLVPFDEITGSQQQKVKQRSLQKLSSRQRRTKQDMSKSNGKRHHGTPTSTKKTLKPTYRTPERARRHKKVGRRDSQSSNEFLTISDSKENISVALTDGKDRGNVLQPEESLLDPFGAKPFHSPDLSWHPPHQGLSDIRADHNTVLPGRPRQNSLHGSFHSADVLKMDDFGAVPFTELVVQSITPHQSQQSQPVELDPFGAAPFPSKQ
Chain of STK16 (O75716 whole entry): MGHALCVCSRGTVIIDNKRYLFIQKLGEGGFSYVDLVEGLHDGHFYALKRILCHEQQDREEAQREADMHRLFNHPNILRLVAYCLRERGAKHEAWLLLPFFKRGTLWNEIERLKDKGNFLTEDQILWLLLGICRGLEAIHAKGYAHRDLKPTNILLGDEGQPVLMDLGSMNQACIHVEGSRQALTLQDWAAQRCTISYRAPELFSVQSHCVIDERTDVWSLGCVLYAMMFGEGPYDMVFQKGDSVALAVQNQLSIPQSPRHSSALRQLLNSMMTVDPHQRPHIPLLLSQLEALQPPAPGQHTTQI
Chain of AAK1 (Q2M2I8 whole entry): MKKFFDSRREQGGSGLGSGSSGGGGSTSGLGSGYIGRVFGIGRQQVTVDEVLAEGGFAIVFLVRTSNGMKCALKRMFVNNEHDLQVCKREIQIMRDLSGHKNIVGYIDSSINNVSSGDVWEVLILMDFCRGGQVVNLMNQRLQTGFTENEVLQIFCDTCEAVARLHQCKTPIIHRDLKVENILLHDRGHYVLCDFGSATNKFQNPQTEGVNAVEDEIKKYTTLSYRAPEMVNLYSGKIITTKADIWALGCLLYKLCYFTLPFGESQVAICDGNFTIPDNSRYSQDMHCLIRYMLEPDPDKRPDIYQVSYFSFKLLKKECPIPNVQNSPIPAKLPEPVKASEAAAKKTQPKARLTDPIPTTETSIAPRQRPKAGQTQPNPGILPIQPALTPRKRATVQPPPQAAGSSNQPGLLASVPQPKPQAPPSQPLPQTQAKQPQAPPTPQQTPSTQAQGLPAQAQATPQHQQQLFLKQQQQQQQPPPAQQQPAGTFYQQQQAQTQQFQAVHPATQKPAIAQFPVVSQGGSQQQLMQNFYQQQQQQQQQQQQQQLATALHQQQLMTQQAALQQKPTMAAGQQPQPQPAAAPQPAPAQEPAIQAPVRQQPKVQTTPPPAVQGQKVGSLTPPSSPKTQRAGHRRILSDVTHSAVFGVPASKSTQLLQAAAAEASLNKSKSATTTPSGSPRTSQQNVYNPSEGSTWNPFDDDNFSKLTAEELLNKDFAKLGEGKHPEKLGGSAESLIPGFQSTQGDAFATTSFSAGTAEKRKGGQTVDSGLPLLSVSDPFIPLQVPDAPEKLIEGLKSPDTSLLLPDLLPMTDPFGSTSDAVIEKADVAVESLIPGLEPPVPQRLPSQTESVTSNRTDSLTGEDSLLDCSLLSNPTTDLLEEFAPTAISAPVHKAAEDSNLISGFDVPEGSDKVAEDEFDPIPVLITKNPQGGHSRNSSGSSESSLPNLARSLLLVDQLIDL

The term Kd denotes the equilibrium constant for the complex coming apart. In the case of `NC(=O)Nc1cc(-c2cccc(F)c2)sc1C(=O)N[C@H]1CCCNC1` [AZD7762], the dissociation constant (Kd) was determined as 13 nM at BIKE, 1.4 nM on GAK (read-out: GAK Kd), 1900 nM on STK16 and 2.9 nM at AAK1.
As to `CCS(=O)(=O)N1CC(CC#N)(n2cc(-c3ncnc4[nH]ccc34)cn2)C1` [Baricitinib], the “signaling of cytokines implicated in COVID-19 infection (IL-2, IL-6, IL-10, IFN-γ, G-CSF), pSTAT inhibition” value in series [1] was “inhibited signaling”. For the same molecule, the “reduction of viral load” value in the series on SARS‐CoV‐2 [2] is reported as 30–40%. In addition, the “liver cell injury / spheroid viability” value in series [3] is on record as “did not result in liver cell injury”. Moreover, the “change from baseline in plasma IL-6 at week 12” value in the series on IL‐6 is on record as “significant reduction”. For the same molecule, the “clinical outcome of case series” value in the series with SARS‐CoV‐2 [4] (4 mg (Patients A, C, D) or 2 mg (Patient B) once daily oral, 10-12 days) was “improved lung function, resolution of their illness, and reductions in viral load, plasma IL‐6, ferritin, and CRP levels”. The tolerability entry in the series with SARS‐CoV‐2 [4] (four patients, 2 or 4 mg once daily oral, 10-12 days) is “well‐tolerated”. Moreover, the liver aminotransferases entry in the series on SARS‐CoV‐2 [4] (four patients, during baricitinib treatment) is on record as “Transient increases”. For the same molecule, the “time to improvement of liver enzyme elevations” value with SARS‐CoV‐2 [4] (without interrupting baricitinib treatment) is at most 72 h. The “unbound fraction of free bioavailable drug, AUC” value in series [5] (RA patient sera, baricitinib 2 mg, ref data on file) is recorded as 326 nM. The half-life result in [5] (RA patients, ref Eli Lilly and Company, 2019) is recorded as “approximately 12 h”. In addition, the main clearance mechanism result in series [5] (ref Eli Lilly and Company, 2019) is given as “renal elimination”. For the same molecule, in [6], the “incidence rate of serious infection” value was 2.8 /100 patient‐years. Besides, the “binding affinity for JAK2” value with JAK2 is reported as 5.7 nM.
Turning to `CC[C@@H]1CN(C(=O)NCC(F)(F)F)C[C@@H]1c1cnc2cnc3[nH]ccc3n12` [Upadacitinib], the Kd worked out at 11000 nM on BIKE, 2200 nM at GAK and 9300 nM on STK16.
